# Results from ChEMBL document CHEMBL4321874 (J Med Chem, 2020).
# The source made the active and inactive calls. The rule behind the calls is not given here.
# Assays:
# [1] = target: Dual specificity protein kinase CLK4 (Homo sapiens) (UniProt Q9HAZ1); experiment: Inhibition of kinase tracer 236 binding to recombinant full-length human GST-tagged CLK4 expressed in baculovirus expression system at 1000 nM by Lanthascreen Eu kinase binding assay relative to control
# [2] = target: Serine/threonine-protein kinase 17A (Homo sapiens) (UniProt Q9UEE5); experiment: Inhibition of kinase tracer 236 binding to recombinant full-length human GST-tagged DRAK1 expressed in baculovirus expression system at 1000 nM by Lanthascreen Eu kinase binding assay relative to control
# [3] = target: T1, Dual specificity tyrosine-phosphorylation-regulated kinase 1A (Homo sapiens, UniProt Q13627); experiment: Inhibition of recombinant full-length human GST-tagged DYRK1A expressed in baculovirus expression system at 1000 nM by Z'-LYTE assay relative to control
# [4] = target: T2, Dual specificity tyrosine-phosphorylation-regulated kinase 1B (Homo sapiens, UniProt Q9Y463); experiment: Inhibition of recombinant full-length human GST-tagged DYRK1B expressed in baculovirus expression system at 1000 nM by Z'-LYTE assay relative to control
# [5] = target: Myotonin-protein kinase (Homo sapiens) (UniProt Q09013); experiment: Inhibition of kinase tracer 236 binding to recombinant full-length human GST-tagged DMPK expressed in baculovirus expression system at 1000 nM by Lanthascreen Eu kinase binding assay relative to control
# [6] = target: Death-associated protein kinase 3 (Homo sapiens) (UniProt O43293); experiment: Inhibition of full-length human GST-tagged DAPK3 expresssed in baculovirus expression system at 1000 nM by Z'-LYTE assay relative to control
# [7] = target: CDK9/cyclin T1 (Homo sapiens) (UniProt O60563+P50750); experiment: Inhibition of full-length recombinant human His-tagged CDK9/Cyclin T1 expressed in baculovirus expression system at 1000 nM by Adapta kinase assay relative to control
# [8] = target: Glycogen synthase kinase-3 alpha (Homo sapiens) (UniProt P49840); experiment: Inhibition of kinase tracer 236 binding to N-terminal GST-tagged human full length GSK3alpha expressed in baculovirus expression system at 1000 nM by Lanthascreen Eu kinase binding assay relative to control
# [9] = target: Glycogen synthase kinase-3 beta (Homo sapiens) (UniProt P49841); experiment: Inhibition of recombinant full-length human His-tagged GSK3beta expressed in baculovirus expression system at 1000 nM by Z'-LYTE assay relative to control
# [10] = target: Dual specificity protein kinase CLK2 (Homo sapiens) (UniProt P49760); experiment: Inhibition of GST-tagged human recombinant CLK2 catalytic domain (137 to 498 residues) expressed in baculovirus expression system at 1000 nM by Z'-LYTE assay relative to control
# [11] = target: Homeodomain-interacting protein kinase 4 (Homo sapiens) (UniProt Q8NE63); experiment: Inhibition of recombinant full-length human N-terminal GST-tagged HIPK4 expressed in baculovirus expression system at 1000 nM by Z'-LYTE assay relative to control
# [12] = target: Casein kinase I isoform gamma-2 (Homo sapiens) (UniProt P78368); experiment: Inhibition of recombinant full-length human His-tagged CSNK1G2 expressed in baculovirus expression system at 1000 nM by Z'-LYTE assay relative to control
# [13] = target: CDK8/Cyclin C (Homo sapiens) (UniProt P49336+P24863); experiment: Inhibition of kinase tracer 236 binding to recombinant full-length human His-tagged CDK8/CyclinC expressed in baculovirus expression system at 1000 nM by Lanthascreen Eu kinase binding assay relative to control
# [14] = target: T3, Death-associated protein kinase 1 (Homo sapiens, UniProt P53355); experiment: Inhibition of recombinant human N-terminal GST-tagged DAPK1 catalytic domain (1 to 363 residues) expressed in baculovirus expression system at 1000 nM by Adapta kinase assay relative to control
# [15] = target: T4, Dual specificity protein kinase CLK1 (Homo sapiens, UniProt P49759); experiment: Inhibition of recombinant human GST-tagged CLK1 catalytic domain (129 to 484 residues) expressed in Escherichia coli at 1000 nM by Z'-LYTE assay relative to control
# Mus musculus [16] = experiment: Increase in cyclin B1 expression in tumor in BALB/c mouse xenografted with human COLO205 cells at 100 mg/kg, po measured for 16 hrs post-treatment by Western blot analysis; format: functional, organism-based
# Mus musculus [17] = experiment: Effect on PARP cleavage in tumor in BALB/c mouse xenografted with human COLO205 cells at 100 mg/kg, po measured for 16 hrs post-treatment by Western blot analysis; format: functional, organism-based
# [18] = Drug metabolism assessed as (4bS)-2-(3-Methyl-1H-pyrazol-4-yl)-5,6,7,8-tetrahydropyrido-[1',2':3,4]imidazo[1,5-a]thieno[3,2-d]pyrimidin-12(4bH)-one formaldehyde adduct formation at 5 nmol after 30 mins in presence of excess formaldehyde by QTOF-UPLC analysis
# Mus musculus [19] = experiment: In vivo inhibition of […] in BALB/c mouse xenografted with human COLO205 cells assessed as MCM2 phosphorylation at Ser 41 residue in tumor at 100 mg/kg, po measured for 16 hrs post-treatment by Western blot analysis; format: functional, organism-based
# [20] = target: T5, CDC7/DBF4 (Cell division cycle 7-related protein kinase/Activator of S phase kinase) (Homo sapiens, UniProt O00311); experiment: Inhibition of N-terminal GST-fused full-length human CDC7 (1 to 574 end residues)/DBF4 (1 to 674 residues) expressed in baculovirus expression system using MCM2 as substrate preincubated with enzyme for 10 mins prior to 1 uM ATP addition by HTRF transcreener ADP assay
# [21] = target: Rho-associated protein kinase 1 (Homo sapiens, UniProt Q13464); experiment: Inhibition of N-terminal GST-tagged human ROCK1 catalytic domain (1 to 477 residues) expressed in baculovirus expression system using biotin-STK-substrate 2 as substrate preincubated with enzyme for 5 mins followed by ATP addition and measured after 2 hrs by TR-FRET assay
# [22] = target: T5, CDC7/DBF4 (Cell division cycle 7-related protein kinase/Activator of S phase kinase); experiment: Inhibition of N-terminal GST-fused full-length human CDC7 (1 to 574 end residues)/DBF4 (1 to 674 residues) expressed in baculovirus expression system using MCM2 as substrate in presence of 50 uM ATP by HTRF transcreener ADP assay
# [23] = target: T5, CDC7/DBF4 (Cell division cycle 7-related protein kinase/Activator of S phase kinase); experiment: Inhibition of N-terminal GST-fused full-length human CDC7 (1 to 574 end residues)/DBF4 (1 to 674 residues) expressed in baculovirus expression system using MCM2 as substrate preincubated with enzyme for 60 mins prior to 50 uM ATP addition by HTRF transcreener ADP assay
# [24] = target: T6, Cell division cycle 7-related protein kinase (Homo sapiens, UniProt O00311); experiment: Inhibition of CDC7 in human HeLa cells assessed as inhibition of MCM2 phosphorylation at Ser40 residue in human HeLa cells after 7 hrs by Western blot analysis; format: cell-based
# [25] = target: T6, Cell division cycle 7-related protein kinase; experiment: Binding affinity to CDC7 (unknown origin) assessed as equilibrium dissociation constant
# [26] = target: Cyclin-dependent kinase 2/cyclin E1 (Homo sapiens, UniProt P24941); experiment: Inhibition of N-terminal GST-tagged full-length human CDK2 (1 to 298 residues)/Cyclin E (1 to 410 residues) expressed in baculovirus expression system using histone H1 as susbtrate after 90 mins by Kinase-Glo luminescence assay
# COLO 205 [27] = experiment: Antiproliferative activity against human COLO205 cells assessed as reduction in cell growth after 3 days by CellTiter-Glo luminescence assay; format: functional, cell-based; conditions: COLO 205, 72 h
# [28] = target: T1, Dual specificity tyrosine-phosphorylation-regulated kinase 1A; experiment: Inhibition of recombinant full-length human GST-tagged DYRK1A expressed in baculovirus expression system by Z'-LYTE assay
# [29] = target: T2, Dual specificity tyrosine-phosphorylation-regulated kinase 1B; experiment: Inhibition of recombinant full-length human GST-tagged DYRK1B expressed in baculovirus expression system by Z'-LYTE assay
# Myotonin-protein kinase = Myotonin-protein kinase (Homo sapiens, UniProt Q09013); experiment: Inhibition of kinase tracer 236 binding to recombinant full-length human GST-tagged DMPK expressed in baculovirus expression system by Lanthascreen Eu kinase binding assay
# [30] = target: Homeodomain-interacting protein kinase 4 (Homo sapiens, UniProt Q8NE63); experiment: Inhibition of recombinant full-length human N-terminal GST-tagged HIPK4 expressed in baculovirus expression system by Z'-LYTE assay
# CDK8/Cyclin C = CDK8/Cyclin C (Homo sapiens, UniProt P49336); experiment: Inhibition of kinase tracer 236 binding to recombinant full-length human His-tagged CDK8/CyclinC expressed in baculovirus expression system by Lanthascreen Eu kinase binding assay
# [31] = target: T3, Death-associated protein kinase 1; experiment: Inhibition of recombinant human N-terminal GST-tagged DAPK1 catalytic domain (1 to 363 residues) expressed in baculovirus expression system by Adapta kinase assay
# [32] = target: T4, Dual specificity protein kinase CLK1; experiment: Inhibition of recombinant human GST-tagged CLK1 catalytic domain (129 to 484 residues) expressed in Escherichia coli by Z'-LYTE assay
# [33] = target: T6, Cell division cycle 7-related protein kinase; experiment: Inhibition of ATP-specific reporter probe binding to CDC7 (unknown origin) assessed as equilibrium dissociation constant incubated for 60 mins by proteros reporter displacement assay
# [34] = Cmax in mouse at 10 mg/kg, po dosed via cassette dosing; format: ADME, organism-based; design: dose 10 mg/kg, route oral; conditions: in vivo
# [35] = AUC(0 to 8 hrs) in mouse at 10 mg/kg, po dosed via cassette dosing; format: ADME, organism-based; design: time < 6 hr, dose 10 mg/kg, route oral; conditions: in vivo
# Mus musculus [36] = experiment: In vivo inhibition of CDC7 in BALB/c mouse xenografted with human COLO205 cells assessed as reduction in MCM2 phosphorylation at Ser40/41 residue in tumor at 100 mg/kg, po after 4 hrs by Western blot analysis; format: functional; conditions: COLO 205, po
# COLO 205 [37] = experiment: Antitumour activity against human COLO205 cells xenografted in Balb/c mouse assessed as inhibition of tumor growth at 50 to 100 mg/kg, po administered BID for 14 days and measured every 2 to 3 days relative to untreated control; format: functional
# [38] = Toxicity in BALB/c mouse xenografted with human COLO205 cells assessed as effect on body weight at 50 to 100 mg/kg , po adminstered BID for 14 days and measured every 2 to 3 days; format: organism-based; conditions: in vivo
# [39] = Drug metabolism assessed as (4bS)-2-(3-Methyl-1H-pyrazol-4-yl)-5,6,7,8-tetrahydropyrido-[1',2':3,4]imidazo[1,5-a]thieno[3,2-d]pyrimidin-12(4bH)-one formaldehyde adduct formation by measuring retention time at 5 nmol after 30 mins in presence of excess formaldehyde by QTOF-UPLC analysis; format: physicochemical; conditions: 0.5 h
compound,measurement,setting,value
Cc1n[nH]cc1-c1cc2nc([C@@H]3CCCCN3)[nH]c(=O)c2s1 [listing 1 of 2 here],inhibition,[1],100%
same,inhibition,[2],99%
same,inhibition,[3],98%
same,inhibition,[4],96%
same,inhibition,[5],95%
same,inhibition,[6],92%
same,inhibition,[7],90%
same,inhibition,[8],89%
same,inhibition,[9],89%
same,inhibition,[10],88%
same,inhibition,[11],87%
same,inhibition,[12],87%
same,inhibition,[13],87%
same,inhibition,[14],85%
same,inhibition,[15],81%
same,Activity,Mus musculus [16],Active
same,Activity,Mus musculus [17],inactive
same,Drug metabolism,[18],Metabolite detected
same,inhibition,Mus musculus [19],inactive
Cc1[nH]ncc1-c1cc2nc([C@@H]3CC4CCN3CC4)[nH]c(=O)c2s1 [SIMUROSERTIB],IC50,[20],0.26 nM
same,IC50,[21],430 nM
same,IC50,[22],43 nM
same,IC50,[23],0.54 nM
same,IC50,[24],17 nM
same,Kd,[25],0.424 nM
Cc1n[nH]cc1-c1cc2nc([C@@H]3CCCCN3)[nH]c(=O)c2s1.Cl.Cl,IC50,[20],0.44 nM
same,IC50,[26],6500 nM
same,IC50,[21],420 nM
same,IC50,[22],120 nM
same,IC50,[23],0.41 nM
same,IC50,[24],36 nM
same,EC50,COLO 205 [27],130 nM
same,IC50,[28],59 nM
same,IC50,[29],78.6 nM
same,IC50,Myotonin-protein kinase,64.6 nM
same,IC50,[30],176 nM
same,IC50,CDK8/Cyclin C,351 nM
same,IC50,[31],203 nM
same,IC50,[32],310 nM
same,Kd,[33],1.96 nM
same,Cmax,[34],978 ng/mL
same,AUC(0-t) at 6 h,[35],1350 ng·h/mL
same,inhibition in vivo at 100 mg/kg,Mus musculus [36],72%
same,T/C,COLO 205 [37],6%
same,Activity,[38],Non-Toxic
Cc1n[nH]cc1-c1cc2nc([C@@H]3CCCCN3)[nH]c(=O)c2s1 [listing 2 of 2 here],Retention_time,[39],4.31 min
